For one assay, the target named is cathepsin D (Homo sapiens, UniProt P07339). The experiment in a line: Inhibition of cathepsin D catalytic activity (Ki). In kind it is biochemical. As to conditions: pH 4.0, 37° C., read-out: CDK.
For another assay, the target named is T1, memapsin 1 (Homo sapiens, UniProt Q9Y5Z0).
T1 sequence (Q9Y5Z0 63-518): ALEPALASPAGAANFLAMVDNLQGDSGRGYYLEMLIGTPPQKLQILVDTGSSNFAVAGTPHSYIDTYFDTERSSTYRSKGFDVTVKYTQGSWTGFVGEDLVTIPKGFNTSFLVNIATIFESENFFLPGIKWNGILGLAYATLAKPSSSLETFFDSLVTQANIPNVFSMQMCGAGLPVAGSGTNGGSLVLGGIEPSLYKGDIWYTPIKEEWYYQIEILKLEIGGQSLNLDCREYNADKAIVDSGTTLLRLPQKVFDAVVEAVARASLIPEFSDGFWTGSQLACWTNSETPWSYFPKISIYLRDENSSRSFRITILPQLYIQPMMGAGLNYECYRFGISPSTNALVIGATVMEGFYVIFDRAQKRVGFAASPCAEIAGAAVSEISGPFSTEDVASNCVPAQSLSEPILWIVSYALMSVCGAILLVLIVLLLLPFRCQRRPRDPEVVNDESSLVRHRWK
The experiment in a line: Inhibition of memapsin 1 catalytic activity (Ki). It counts as biochemical. To be noted: memapsin 1, pH 4.0, 37° C.; read-out: M1K. The procedure: A substrate peptide NH3-ELDLAVEFWHDR-CO2 (SEQ ID NO.:1) (used for inhibition assay of memapsin 2, memapsin 1, and cathepsin D) was dissolved at 2 mg/ml in DMSO and diluted 1:100 in 0.1 M sodium acetate, pH 4.0 just prior to assay. Inhibitor dissolved in DMSO was diluted into 0.1 M sodium acetate, pH 4.0 (1:100 dilution). A […] aliquot of the inhibitor solution in pH 4 buffer was combined with […] of 0.1 M sodium acetate containing 100-200 nM of memapsin 1, memapsin 2, or cathepsin D. Following a pre-incubation at 37° C., the proteolytic assay was initated by addition of […] of the substrate diluted into pH 4 buffer, and incubation continued at 37° C. Aliquots were removed at time intervals, and combined with an equal volume of MALDI-TOF matrix (α-hydroxycinnamic acid in acetone, 20 mg/ml) and immediately spotted in duplicate onto a stainless-steel MALDI sample plate. MALDI-TOF mass spectrometry was performed on a PE Biosystems Voyager DE instrument at the Molecular Biology Resource Center on campus. The instrument was operated at 25,000 accelerating volts in positive mode with a 150 ns delay. Ions with a mass-to-charge ratio (m/z) were detected in the range of 650-2000 atomic mass units. Data were analyzed by the Voyager Data Explorer module to obtain ion intensity data for mass species of substrates and corresponding products in a given mixture. Relative product formation was calculated as the ratio of signal intensity of the product to the sum of signal intensities of both product and the corresponding substrate. Relative product formed per unit time was obtained from non-linear regression analysis of the data representing the initial 15% formation of product using the model: 1−e^−kT, where k was the relative hydrolytic rate constant and T was time in seconds. Alternatively, relative hydrolytic rates were determined using a fluorogenic cleavage assay (Ermolieff, J. et al., Biochemistry, 39: 12450-12456 (2000)). Initial rates from either method were expressed relative to uninhibited controls and the inhibition constant Ki was determined by a non-linear fit to a tight-binding model of competitive inhibition (Bieth, J., Bayer-Symposium V: Proteinase Inhibitors, pp 463-469, Spinger-Varlag, Berlin (1994)). Results are shown in Table 1 above (M2K, CDK, and M1K columns represent, respectively, the K1 values obtained for memapsin 2, cathepsin D and memapsin 1).

The target of another assay is memapsin 2 (Homo sapiens, UniProt P56817). The experiment in a line: Inhibition of memapsin 2 catalytic activity (Ki). It counts as biochemical. As to conditions: memapsin 2, pH 4, 37° C.; read-out: M2K. The gist of the method: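 Run at 37 °C and pH 4: compound and enzyme pre-incubated 20 min before FS-2 fluorogenic substrate started hydrolysis,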
Assay [1] concerns Aβ production in Chinese hamster ovary cells that over-express human APP695 with the London and Swedish mutations. The assay can be described thus: Cellular Aβ IC50 determination (Aβ40 sandwich ELISA). To be noted: Cricetulus griseus, CHO, 24 h, read-out: Cell, Aβ40, CHO cells over-expressing human APP695 (London and Swedish mutations), 24 h.

Chain of cathepsin D (P07339 65-412, species assumed): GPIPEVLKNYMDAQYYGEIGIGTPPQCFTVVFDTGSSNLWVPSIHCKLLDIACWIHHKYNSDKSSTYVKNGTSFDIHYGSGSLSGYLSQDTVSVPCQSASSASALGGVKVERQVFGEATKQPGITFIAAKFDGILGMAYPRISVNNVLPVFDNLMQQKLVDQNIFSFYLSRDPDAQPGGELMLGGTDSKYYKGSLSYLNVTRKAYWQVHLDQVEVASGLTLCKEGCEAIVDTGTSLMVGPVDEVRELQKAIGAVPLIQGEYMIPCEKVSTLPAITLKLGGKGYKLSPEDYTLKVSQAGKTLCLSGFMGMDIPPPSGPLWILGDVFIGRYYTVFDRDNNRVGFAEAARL
Chain of memapsin 2 (P56817 46-501): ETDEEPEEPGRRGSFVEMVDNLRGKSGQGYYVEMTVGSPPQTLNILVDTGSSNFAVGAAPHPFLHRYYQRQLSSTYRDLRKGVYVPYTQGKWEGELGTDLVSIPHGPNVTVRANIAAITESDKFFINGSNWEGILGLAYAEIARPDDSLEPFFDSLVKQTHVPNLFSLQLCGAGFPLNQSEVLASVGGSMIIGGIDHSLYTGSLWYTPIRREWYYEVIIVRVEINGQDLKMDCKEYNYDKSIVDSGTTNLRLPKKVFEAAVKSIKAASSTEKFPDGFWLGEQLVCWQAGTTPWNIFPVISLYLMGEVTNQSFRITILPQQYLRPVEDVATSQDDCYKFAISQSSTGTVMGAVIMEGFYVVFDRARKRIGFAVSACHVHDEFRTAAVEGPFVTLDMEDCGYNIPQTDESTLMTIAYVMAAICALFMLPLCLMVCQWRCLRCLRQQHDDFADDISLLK

For the molecule “4- or 6-fluoro-N3-(3-hydroxy-4-(3-methoxybenzylamino)-1-phenylbutan-2-yl)-N1-methyl-N1-((4-methylthiazol-2-yl)methyl)isophthalamide”, the Ki on cathepsin D, on memapsin 1 and at memapsin 2 was < 300 nM each time.

For `COc1cccc(CNCC(O)C(CC(C)C)NC(=O)c2cc(C(=O)NC(C)c3ccccc3)cc(N(C)S(C)(=O)=O)c2)c1` (stereo not shown) [N1-(2-hydroxy-1-(3-methoxybenzylamino)-5-methylhexan-3-yl)-5-(N-methylmethylsulfonamido)-N3-(1-phenylethyl)isophthalamide], the Ki on memapsin 1 and on memapsin 2 was > 501 nM throughout.

In the case of `CC(C)NC(=O)c1cccc(CNCC(O)C(Cc2ccccc2)NC(=O)c2cc(C(=O)NC(C)c3ccccc3)cc(N(C)S(C)(=O)=O)c2)c1` (stereo not shown) [N1-(3-hydroxy-4-(3-(isopropylcarbamoyl)benzylamino)-1-phenylbutan-2-yl)-5-(N-methylmethylsulfonamido)-N3-(1-phenylethyl)isophthalamide], in assay [1], the IC50 was > 5000 nM. In addition, the Ki on memapsin 1 and on memapsin 2 was > 501 nM in each case.

In the case of `COCc1cccc(CNCC(O)C(Cc2ccccc2)NC(=O)c2cc(C(=O)NC(C)c3ccccc3)cc(N(C)S(C)(=O)=O)c2)c1` (stereo not shown) [N1-(3-hydroxy-4-(3-(methoxymethyl)benzylamino)-1-phenylbutan-2-yl)-5-(N-methylmethylsulfonamido)-N3-(1-phenylethyl)isophthalamide], the IC50 in assay [1] is > 5000 nM. The Ki at memapsin 1 is > 501 nM.

On to `COc1cccc(CNCC(O)C(Cc2ccccc2)NC(=O)c2cc(C(=O)NC(C)c3cccc(OC)c3)cc(N(C)S(C)(=O)=O)c2)c1` (stereo not shown) [N1-(3-hydroxy-4-(3-methoxybenzylamino)-1-phenylbutan-2-yl)-N3-(1-(3-methoxyphenyl)ethyl)-5-(N-methylmethylsulfonamido)isophthalamide], for which, in assay [1], the IC50 was < 1000 nM. Also, the Ki is > 501 nM at memapsin 1 and < 300 nM on memapsin 2.

For the molecule `COc1cncc(CNCC(O)C(Cc2ccccc2)NC(=O)c2cc(C(=O)NC(C)c3ccccc3)cc(N(C)S(C)(=O)=O)c2)c1` (stereo not shown) [N1-(3-hydroxy-4-((5-methoxypyridin-3-yl)methylamino)-1-phenylbutan-2-yl)-5-(N-methylmethylsulfonamido)-N3-(1-phenylethyl)isophthalamide], the figures for the Ki at cathepsin D, at memapsin 1 and on memapsin 2 were < 300 nM, 301 to 500 nM and < 300 nM, respectively.

`Cc1csc(CN(C)CC(O)C(Cc2ccccc2)NC(=O)c2cc(C(=O)NC(C)c3ccccc3)cc(N(C)S(C)(=O)=O)c2)n1` (stereo not shown) [N1-(3-hydroxy-4-(methyl((4-methylthiazol-2-yl)methyl)amino)-1-phenylbutan-2-yl)-5-(N-methylmethylsulfonamido)-N3-(1-phenylethyl)isophthalamide]: the Ki on cathepsin D, at memapsin 1 and on memapsin 2 was > 501 nM in each case.

Turning to `CC(NC(=O)c1cc(C(=O)NC(Cc2ccccc2)C(O)CNCc2cccc(COCc3ccccc3)c2)cc(N(C)S(C)(=O)=O)c1)c1ccccc1` (stereo not shown) [N1-(4-(3-(benzyloxymethyl)benzylamino)-3-hydroxy-1-phenylbutan-2-yl)-5-(N-methylmethylsulfonamido)-N3-(1-phenylethyl)isophthalamide], the Ki on cathepsin D was > 501 nM; at memapsin 1, < 300 nM; on memapsin 2 it was 301 to 500 nM.

Turning to `CCc1cccc(CNCC(O)C(Cc2ccccc2)NC(=O)c2cc(C(=O)NC(C)c3ccccc3)cc(N(C)S(C)(=O)=O)c2)c1` (stereo not shown) [N1-(4-(3-ethylbenzylamino)-3-hydroxy-1-phenylbutan-2-yl)-5-(N-methylmethylsulfonamido)-N3-(1-phenylethyl)isophthalamide], the IC50 in assay [1] was < 1000 nM. Besides, the Ki on cathepsin D and at memapsin 2 was < 300 nM each time.

As for `CCc1cccc(CNCC(O)C(Cc2ccccc2)NC(=O)c2cccc(C(=O)N(C)Cc3nc(C)cs3)c2)c1` (stereo not shown) [N1-(4-(3-ethylbenzylamino)-3-hydroxy-1-phenylbutan-2-yl)-N3-methyl-N3-((4-methylthiazol-2-yl)methyl)isophthalamide], the IC50 in assay [1] is < 1000 nM. The Ki on cathepsin D and on memapsin 2 was < 300 nM each time.

As for `CC(NC(=O)c1cc(C(=O)NC(Cc2ccccc2)C(O)CNCc2nc3ccccc3[nH]2)cc(N(C)S(C)(=O)=O)c1)c1ccccc1` (stereo not shown) [N1-(4-((1H-benzo[d]imidazol-2-yl)methylamino)-3-hydroxy-1-phenylbutan-2-yl)-5-(N-methylmethylsulfonamido)-N3-(1-phenylethyl)isophthalamide], the IC50 in assay [1] was in the range of 1000 to 5000 nM. In addition, the Ki on cathepsin D and at memapsin 2 was < 300 nM throughout.

On to `CC(NC(=O)c1cc(C(=O)NC(Cc2ccccc2)C(O)CNCc2cncc(N(C)C)c2)cc(N(C)S(C)(=O)=O)c1)c1ccccc1` (stereo not shown) [N1-(4-((5-(dimethylamino)pyridin-3-yl)methylamino)-3-hydroxy-1-phenylbutan-2-yl)-5-(N-methylmethylsulfonamido)-N3-(1-phenylethyl)isophthalamide], for which, in assay [1], the IC50 is < 1000 nM. In addition, the Ki on cathepsin D is 301 to 500 nM; on memapsin 2, < 300 nM.

With `CCc1cncc(CNCC(O)C(Cc2ccccc2)NC(=O)c2cc(C(=O)NC(C)c3ccccc3)cc(N(C)S(C)(=O)=O)c2)c1` (stereo not shown) [N1-(4-((5-ethylpyridin-3-yl)methylamino)-3-hydroxy-1-phenylbutan-2-yl)-5-(N-methylmethylsulfonamido)-N3-(1-phenylethyl)isophthalamide], in assay [1], the IC50 was < 1000 nM. In addition, the Ki on cathepsin D and at memapsin 2 was < 300 nM throughout.

In the case of `CCc1cncc(CNCC(O)C(Cc2ccccc2)NC(=O)c2cccc(C(=O)N(C)Cc3nc(C)cs3)c2)c1` (stereo not shown) [N1-(4-((5-ethylpyridin-3-yl)methylamino)-3-hydroxy-1-phenylbutan-2-yl)-N3-methyl-N3-((4-methylthiazol-2-yl)methyl)isophthalamide], the IC50 in assay [1] is < 1000 nM. Moreover, the Ki on cathepsin D and on memapsin 2 was < 300 nM throughout.

Turning to `CC(NC(=O)c1cc(C(=O)NC(Cc2ccccc2)C(O)CNCc2cncc(F)c2)cc(N(C)S(C)(=O)=O)c1)c1ccccc1` (stereo not shown) [N1-(4-((5-fluoropyridin-3-yl)methylamino)-3-hydroxy-1-phenylbutan-2-yl)-5-(N-methylmethylsulfonamido)-N3-(1-phenylethyl)isophthalamide], the IC50 in assay [1] is < 1000 nM. Moreover, the Ki at cathepsin D and on memapsin 2 was < 300 nM throughout.

As for `COc1cccc(CNCC(O)C(Cc2ccccc2)NC(=O)c2cccc(C(=O)N(Cc3nc(C)cs3)C3CC3)c2)c1` (stereo not shown) [N1-cyclopropyl-N3-(3-hydroxy-4-(3-methoxybenzylamino)-1-phenylbutan-2-yl)-N1-((4-methylthiazol-2-yl)methyl)isophthalamide], the results for the Ki at cathepsin D, at memapsin 1 and at memapsin 2 were < 300 nM, > 501 nM and < 300 nM, respectively.

As for `CC(NC(=O)c1cc(C(=O)NC(Cc2ccccc2)C(O)CNCC2CCN(C(=O)OCc3ccccc3)CC2)cc(N(C)S(C)(=O)=O)c1)c1ccccc1` (stereo not shown) [benzyl 4-((2-hydroxy-3-(3-(N-methylmethylsulfonamido)-5-(1-phenylethylcarbamoyl)benzamido)-4-phenylbutylamino)methyl)piperidine-1-carboxylate], the IC50 in assay [1] fell in the range of 1000 to 5000 nM. For the same molecule, the Ki on cathepsin D and on memapsin 2 was < 300 nM throughout.
